What was measured:
Assay type in all cases: in vivo
[1] = tested on: goosegrass (Eleusine indica); assay: Test C postemergence greenhouse test, plant response rating 0-100
Method in brief: (§1)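 Postemergence spray of formulated test chemicals on plants 2 to 18 cm tall (1- to 4-leaf stage) grown in peat/vermiculite medium. Greenhouse hold 13 to 15 days, then visual comparison with untreated controls on a 0-100 scale (0 no effect, 100 complete control); dash means no test result.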

[2] = tested on: windgrass (Apera spica-venti); assay: as above
Method in brief: as §1

[3] = tested on: surinam grass (Brachiaria decumbens); assay: as above
Method in brief: as §1

[4] = tested on: bermudagrass (Cynodon dactylon); assay: as above
Method in brief: as §1

[5] = tested on: downy bromegrass (Bromus tectorum); assay: as above
Method in brief: as §1

[6] = tested on: deadnettle (henbit deadnettle, Lamium amplexicaule); assay: as above
Method in brief: as §1

[7] = tested on: canarygrass (Phalaris minor); assay: as above
Method in brief: as §1

[8] = tested on: cocklebur (common cocklebur, Xanthium strumarium); assay: as above
Method in brief: as §1

[9] = tested on: woolly cupgrass (Eriochloa villosa); assay: as above
Method in brief: as §1

[10] = tested on: winter barley (Hordeum vulgare); assay: as above
Method in brief: as §1

[11] = tested on: green foxtail (Setaria viridis); assay: as above
Method in brief: as §1

[12] = tested on: waterhemp_RES2, (ALS & HPPD resistant common waterhemp, Amaranthus rudis); assay: Test E postemergence greenhouse test, plant response rating 0-100; details: scale 0 to 100
Procedure: At the same time, plants from these crop and weed species and also waterhemp_RES1, (ALS & Triazine resistant common waterhemp, Amaranthus rudis), and waterhemp_RES2, (ALS & HPPD resistant common waterhemp, Amaranthus rudis) were planted in pots containing Redi-Earth® planting medium (Scotts Company, 14111 Scottslawn Road, Marysville, Ohio 43041) comprising spaghnum peat moss, vermiculite, wetting agent and starter nutrients were treated with postemergence applications of test chemicals formulated in the same manner. Plants ranged in height from 2 to 18 cm for postemergence treatments (1- to 4-leaf stage).
Treated plants and controls were maintained in a greenhouse for 14 to 21 days, after which time all species were compared to controls and visually evaluated. Plant response ratings, summarized in Table E, are based on a scale of 0 to 100 where 0 is no effect and 100 is complete control. A dash (-) response means no test result.

[13] = tested on: waterhemp (common waterhemp, Amaranthus rudis); assay: Test C pre-/postemergence greenhouse test, plant response rating 0-100
Method in brief: (§2)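 Pre- and postemergence greenhouse test: seeds sown in loam/sand and treated preemergence, or plants at 2–18 cm (1- to 4-leaf stage) in peat-based medium sprayed postemergence, with compounds in non-phytotoxic solvent plus surfactant. Visual rating versus untreated controls after 13–15 days, 0 (no effect) to 100 (complete control).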

[14] = tested on: oilseed rape (Brassica napus); assay: as above
Method in brief: as §2

[15] = tested on: barnyardgrass (Echinochloa crus-galli); assay: as above
Method in brief: as §2

[16] = Postemergence, 250 g ai/ha, scale 0 to 100
[17] = Postemergence, 125 g ai/ha, scale 0 to 100
[18] = Postemergence, 500 g ai/ha, scale 0 to 100
[19] = Preemergence, 0 to 100 scale (0 no effect, 100 complete control), rate 500 g ai/ha

CCn1cc(C(=O)c2ccccc2)c(-c2cc(Br)cc(Br)c2)n1 [Compound 38]
10: Plant response rating (0 to 100), Cocklebur ([8]; 62 g ai/ha)
5: Plant response rating, Deadnettle ([6]; 250 g ai/ha, scale 0 to 100) | Plant response rating, Canarygrass ([7]; 250 g ai/ha, scale 0 to 100) | Plant response rating (0 to 100), Cocklebur ([8]; 31 g ai/ha) | Plant response rating, Foxtail, Green ([11]; 250 g ai/ha, scale 0 to 100)
0: Plant response rating (0 to 100), Goosegrass ([1]; 31 g ai/ha) | Plant response rating (0 to 100), Goosegrass ([1]; 62 g ai/ha) | Plant response rating (0 to 100), Goosegrass ([1]; 125 g ai/ha) | Plant response rating, Goosegrass ([1]; 250 g ai/ha, scale 0 to 100) | Plant response rating (0 to 100), Windgrass ([2]; 62 g ai/ha) | Plant response rating (0 to 100), Windgrass ([2]; 125 g ai/ha) | Plant response rating, Windgrass ([2]; 250 g ai/ha, scale 0 to 100) | Plant response rating (0 to 100), Surinam Grass ([3]; 62 g ai/ha) | Plant response rating (0 to 100), Surinam Grass ([3]; 125 g ai/ha) | Plant response rating, Surinam Grass ([3]; 250 g ai/ha, scale 0 to 100) | Plant response rating (0 to 100), Bermudagrass ([4]; 31 g ai/ha) | Plant response rating (0 to 100), Bermudagrass ([4]; 62 g ai/ha) | Plant response rating (0 to 100), Bermudagrass ([4]; 125 g ai/ha) | Plant response rating, Bermudagrass ([4]; 250 g ai/ha, scale 0 to 100) | Plant response rating (0 to 100), Bromegrass, Downy ([5]; 31 g ai/ha) | Plant response rating (0 to 100), Bromegrass, Downy ([5]; 62 g ai/ha) | Plant response rating (0 to 100), Bromegrass, Downy ([5]; 125 g ai/ha) | Plant response rating, Bromegrass, Downy ([5]; 250 g ai/ha, scale 0 to 100) | Plant response rating (0 to 100), Deadnettle ([6]; 31 g ai/ha) | Plant response rating (0 to 100), Deadnettle ([6]; 62 g ai/ha) | Plant response rating (0 to 100), Deadnettle ([6]; 125 g ai/ha) | Plant response rating (0 to 100), Canarygrass ([7]; 31 g ai/ha) | Plant response rating (0 to 100), Canarygrass ([7]; 62 g ai/ha) | Plant response rating (0 to 100), Canarygrass ([7]; 125 g ai/ha) | Plant response rating (0 to 100), Cupgrass, Woolly ([9]; 31 g ai/ha) | Plant response rating (0 to 100), Cupgrass, Woolly ([9]; 62 g ai/ha) | Plant response rating (0 to 100), Cupgrass, Woolly ([9]; 125 g ai/ha) | Plant response rating, Cupgrass, Woolly ([9]; 250 g ai/ha, scale 0 to 100) | Plant response rating (0 to 100), Barley ([10]; 31 g ai/ha) | Plant response rating (0 to 100), Barley ([10]; 62 g ai/ha) | Plant response rating (0 to 100), Barley ([10]; 125 g ai/ha) | Plant response rating, Barley ([10]; 250 g ai/ha, scale 0 to 100) | Plant response rating (0 to 100), Foxtail, Green ([11]; 31 g ai/ha) | Plant response rating (0 to 100), Foxtail, Green ([11]; 62 g ai/ha) | Plant response rating (0 to 100), Foxtail, Green ([11]; 125 g ai/ha)
15: Plant response rating (0 to 100), Cocklebur ([8]; 125 g ai/ha) | Plant response rating, Cocklebur ([8]; 250 g ai/ha, scale 0 to 100)

O=C(c1ccccc1)c1cn(S(=O)(=O)CCl)nc1-c1cc(Cl)cc(Cl)c1 [Compound 1]
80: Plant response rating (0 to 100), Oilseed Rape ([14]; Postemergence, 125 g ai/ha)
0: Plant response rating (0 to 100), Barnyardgrass ([15]; Postemergence, 31 g ai/ha) | Plant response rating (0 to 100), Barnyardgrass ([15]; Postemergence, 62 g ai/ha) | Plant response rating, Barnyardgrass [15, 17] | Plant response rating, Barnyardgrass [15, 16]
50: Plant response rating (0 to 100), Oilseed Rape ([14]; Postemergence, 62 g ai/ha)
35: Plant response rating, Waterhemp_RES2 ([12]; 125 g ai/ha)
95: Plant response rating, Oilseed Rape [14, 16]
98: Plant response rating, Waterhemp_RES2 ([12]; 250 g ai/ha) | Plant response rating, Waterhemp_RES2 ([12]; 500 g ai/ha) | Plant response rating, Waterhemp [13, 16]
40: Plant response rating, Waterhemp_RES2 ([12]; 31 g ai/ha)
90: Plant response rating (0 to 100), Waterhemp ([13]; Postemergence, 62 g ai/ha) | Plant response rating (0 to 100), Waterhemp ([13]; Postemergence, 125 g ai/ha)

COCC(=O)n1cc(C(=O)c2ccccc2)c(-c2cc(Cl)cc(Cl)c2)n1 [Compound 16, 1-[4-benzoyl-3-(3,5-dichlorophenyl)-1H-pyrazol-1-yl]-2-methoxyethanone]
98: Plant response rating, Waterhemp_RES2 ([12]; 250 g ai/ha) | Plant response rating, Waterhemp [13, 16]
50: Plant response rating (0 to 100), Oilseed Rape ([14]; Postemergence, 62 g ai/ha) | Plant response rating, Oilseed Rape ([14]; Preemergence, 125 g ai/ha)
95: Plant response rating, Waterhemp_RES2 ([12]; 31 g ai/ha) | Plant response rating, Waterhemp_RES2 ([12]; 62 g ai/ha) | Plant response rating (0 to 100), Waterhemp ([13]; Postemergence, 125 g ai/ha)
0: Plant response rating, Oilseed Rape ([14]; Preemergence, 62 g ai/ha) | Plant response rating (0 to 100), Barnyardgrass ([15]; Postemergence, 62 g ai/ha) | Plant response rating, Barnyardgrass [15, 17] | Plant response rating, Barnyardgrass [15, 16] | Plant response rating, Barnyardgrass [15, 18] | Plant response rating, Barnyardgrass ([15]; Preemergence, 62 g ai/ha) | Plant response rating, Barnyardgrass ([15]; Preemergence, 125 g ai/ha) | Plant response rating, Barnyardgrass ([15]; Preemergence, 250 g ai/ha) | Plant response rating, Barnyardgrass ([15]; Preemergence, 500 g ai/ha)
100: Plant response rating, Waterhemp_RES2 ([12]; 500 g ai/ha) | Plant response rating, Waterhemp [13, 18] | Plant response rating, Waterhemp ([13]; Preemergence, 62 g ai/ha) | Plant response rating, Waterhemp ([13]; Preemergence, 125 g ai/ha) | Plant response rating, Waterhemp ([13]; Preemergence, 250 g ai/ha) | Plant response rating, Waterhemp ([13]; Preemergence, 500 g ai/ha) | Plant response rating, Oilseed Rape ([14]; Preemergence, 250 g ai/ha) | Plant response rating, Oilseed Rape ([14]; Preemergence, 500 g ai/ha)
75: Plant response rating, Waterhemp_RES2 ([12]; 125 g ai/ha)
60: Plant response rating (0 to 100), Oilseed Rape ([14]; Postemergence, 125 g ai/ha)
90: Plant response rating (0 to 100), Waterhemp ([13]; Postemergence, 62 g ai/ha) | Plant response rating, Oilseed Rape [14, 16] | Plant response rating, Oilseed Rape [14, 18]

O=C(c1ccccc1)c1cn(S(=O)(=O)C(F)(F)F)nc1-c1cc(Cl)cc(Cl)c1 [Compound 2]
100: Plant response rating, Waterhemp [13, 16] | Plant response rating, Waterhemp [13, 18] | Plant response rating, Waterhemp [13, 19]
90: Plant response rating, Oilseed Rape [14, 16] | Plant response rating, Oilseed Rape [14, 18]
0: Plant response rating, Waterhemp_RES2 ([12]; 31 g ai/ha) | Plant response rating (0 to 100), Barnyardgrass ([15]; Postemergence, 62 g ai/ha) | Plant response rating, Barnyardgrass [15, 17] | Plant response rating, Barnyardgrass [15, 16] | Plant response rating, Barnyardgrass [15, 18]
65: Plant response rating, Waterhemp_RES2 ([12]; 62 g ai/ha)
85: Plant response rating, Waterhemp_RES2 ([12]; 125 g ai/ha) | Plant response rating (0 to 100), Waterhemp ([13]; Postemergence, 62 g ai/ha) | Plant response rating (0 to 100), Waterhemp ([13]; Postemergence, 125 g ai/ha)
70: Plant response rating (0 to 100), Oilseed Rape ([14]; Postemergence, 62 g ai/ha) | Plant response rating (0 to 100), Oilseed Rape ([14]; Postemergence, 125 g ai/ha)
95: Plant response rating, Waterhemp_RES2 ([12]; 250 g ai/ha)
98: Plant response rating, Waterhemp_RES2 ([12]; 500 g ai/ha)

O=C(c1ccccc1)c1cn(S(=O)(=O)CC(F)(F)F)nc1-c1cc(Cl)cc(Cl)c1 [Compound 3]
0: Plant response rating (0 to 100), Barnyardgrass ([15]; Postemergence, 62 g ai/ha) | Plant response rating, Barnyardgrass [15, 17] | Plant response rating, Barnyardgrass ([15]; Preemergence, 62 g ai/ha) | Plant response rating, Barnyardgrass ([15]; Preemergence, 125 g ai/ha) | Plant response rating, Barnyardgrass ([15]; Preemergence, 250 g ai/ha) | Plant response rating, Barnyardgrass ([15]; Preemergence, 500 g ai/ha)
85: Plant response rating, Oilseed Rape [14, 18]
40: Plant response rating, Oilseed Rape ([14]; Preemergence, 62 g ai/ha)
90: Plant response rating (0 to 100), Waterhemp ([13]; Postemergence, 62 g ai/ha) | Plant response rating (0 to 100), Waterhemp ([13]; Postemergence, 125 g ai/ha) | Plant response rating, Waterhemp [13, 16]
100: Plant response rating, Waterhemp ([13]; Preemergence, 62 g ai/ha) | Plant response rating, Waterhemp ([13]; Preemergence, 125 g ai/ha) | Plant response rating, Waterhemp ([13]; Preemergence, 250 g ai/ha) | Plant response rating, Waterhemp ([13]; Preemergence, 500 g ai/ha) | Plant response rating, Waterhemp [13, 19] | Plant response rating, Oilseed Rape ([14]; Preemergence, 500 g ai/ha)
10: Plant response rating, Barnyardgrass [15, 18]
5: Plant response rating, Barnyardgrass [15, 16]
80: Plant response rating, Waterhemp_RES2 ([12]; 62 g ai/ha) | Plant response rating, Oilseed Rape [14, 16] | Plant response rating, Oilseed Rape ([14]; Preemergence, 125 g ai/ha) | Plant response rating, Oilseed Rape ([14]; Preemergence, 250 g ai/ha)
60: Plant response rating, Waterhemp_RES2 ([12]; 31 g ai/ha) | Plant response rating (0 to 100), Oilseed Rape ([14]; Postemergence, 62 g ai/ha)
70: Plant response rating, Waterhemp_RES2 ([12]; 125 g ai/ha) | Plant response rating (0 to 100), Oilseed Rape ([14]; Postemergence, 125 g ai/ha)
95: Plant response rating, Waterhemp_RES2 ([12]; 250 g ai/ha) | Plant response rating, Waterhemp_RES2 ([12]; 500 g ai/ha) | Plant response rating, Waterhemp [13, 18]

Reference: patent US10167262B2, “Herbicidal substituted 3-arylpyrazoles” (FMC CORPORATION, priority 2014, dated 2019)
